Test results from patent US8293481B2, “Biomarkers for chronic vascular dysfunction” (Mayo Foundation for Medical Education and Research, priority 2006, dated 2012).

Legend:
Experiment in all cases: Affymetrix microarray gene expression in aorta post-infarction
Type in all cases: in vivo, rat
[1] = system: trimethyllysine hydroxylase epsilon (Tmlhe); settings: 4 weeks, surgery group without treatment less than baseline control
Text: (§1) After intubation, rats were ventilated continuously (room air) using a small animal ventilator (Model 683, Harvard Apparatus, Holliston, Mass.). A left lateral thoracotomy incision was made along the 5th intercostal space and after the pericardium was opened, the heart was exteriorized using a retention suture placed at the apex. The left anterior descending coronary artery (LAD) was ligated twice using 6-0 prolene suture (Ethicon, Cornelia, Ga.). After chest closure with running 3-0 vicryl suture (Ethicon), rats were put in a recovery chamber with a heating pad and warming light. The post-operative survival rate reached 80%. […] Rats were fed a standard diet of Teklad rodent feed (Harlan) ad libitum and kept on a 12:12 h light-dark cycle. Rats were sacrificed at designated time intervals of 2 weeks and 4 weeks after surgery. […] Isolation of total RNA: […] Surrounding peri-adventitial tissues, fat, and endothelium were then carefully cleaned away and removed. The remaining vascular smooth muscle was then frozen with liquid nitrogen, pulverized into fine powder, and resuspended in 600 μl of Buffer RLT with β-ME (10 μl β-ME: 1 ml Buffer RLT, Qiagen, Valencia, Calif.). The lysate was pipetted directly onto a QIAshredder spin column (Qiagen) placed in a 2 ml collection tube and centrifuged for 5 minutes at 14000 rpm, 4° C. The supernatant was transferred to a new microcentrifuge tube and 1 volume of 70% ethanol was added and mixed. The cleared lysate was then transferred to an RNeasy mini-column (Qiagen) placed in a 2 ml collection tube and spun for 15 seconds at ≧10,000 rpm, 4° C. The flow-through was discarded and 700 μl of Buffer RW1 (Qiagen) was added to the RNeasy column. After the column was spun for 15 seconds at ≧10,000 rpm (4° C.), it was transferred into a new 2 ml collection tube, washed, spun twice with 500 μl Buffer RPE (Qiagen), and eluted with 40 μl of RNase-free water using a microcentrifuge (≧10,000 rpm, 4° C.) for 1 minute. Final RNA samples were stored at −20° C. to prevent degradation. Determination of gene expression using Affymetrix microarrays: Gene expression analysis was conducted using a GeneChip Rat Genome 230 2.0 Array (Affymetrix, West Sacramento, Calif.), with sequences selected from the GENBANK® (World Wide Web at ncbi.nlm.nih.gov) database for expressed sequence tags (dbEST), and Reference Sequence (RefSeq) (Benson et al. (2007) Nucleic Acids Res. 35:D21-25; and Boguski et al. (1993) Nat. Genet. 4:332-333). These sequence clusters were created from the UniGene database (Wheeler et al. (2003) Nucleic Acids Res. 31:28-33; Build 99, June 2002, World Wide Web at ncbi.nlm.nih.gov) and then refined by analysis and comparison with the publicly available draft assembly of the rat genome from the Baylor College of Medicine Human Genome Sequencing Center (Gibbs et al. (2004) Nature 428:493-521). […] GENECHIP® Scanner 3000 and GENECHIP® Operating Software (GCOS) v1.1.1 (Affymetrix, West Sacramento, Calif.), enabled for high-resolution scanning, was used for the final microarray analysis. Differentially expressed genes are listed according to their GeneID number in the National Center for Biotechnology Information (NCBI) database. To ensure accurate analysis, a minimum of 3 ng of good quality total RNA at a concentration of ≧500 pg/μl was required. RNA (1 ng) was tested for its quality using an Agilent 2100 bioanalyzer (Agilent Technologies). A RNA Integrity Number (RIN) was assigned to each sample, and RIN ≧6 was considered satisfactory for proceeding with the microarray analysis. Statistics: The Affymetrix array was used to determine gene expression at 2 weeks and 4 weeks. Uninfarcted control aorta was then compared with both captopril and placebo treated aorta. Similarly, uninfarcted control portal vein was compared with both captopril and placebo treated portal vein. […]

[2] = system: acyl-CoA thioesterase (ACOT8); settings: 2 weeks, infarcted rats with or without captopril
Text: as §1

[3] = system: regulated endocrine-specific protein 18 (Resp18); settings: 4 weeks post-infarction, higher with surgery
Text: as §1

[4] = system: chemokine (C-X-C motif) ligand 12 (Cxcl12); settings: 4 weeks, surgery group without treatment less than baseline control
Text: as §1

glutaminase 2 (Gls2) = settings: 4 weeks, highest in the infarct group without therapy
Text: as §1

SMILES: C[C@H](CS)C(=O)N1CCC[C@H]1C(=O)O [Captopril, 1-[(2S)-3-mercapto-2-methylpropionyl]-L-proline]
- Tmlhe expression in the aorta with captopril [1]: increased expression
- ACOT8 aortic expression level versus control rats without surgery [2]: higher
- Resp18 expression in the aorta with captopril therapy versus surgery alone [3]: further increase in expression
- Cxcl12 expression in the aorta with captopril [4]: increased expression
- Gls2 expression in the aorta, captopril treated group among the groups (glutaminase 2 (Gls2)): lowest
